Tests used:
[1] = system: BMPR2
[2] = target: T1, JNK3 (Homo sapiens, UniProt P53779); test: KINOMEscan; assay type: binding
T1 construct: purchased Eurofins DiscoverX, LLC; host or cells: E. coli (BL21-derived, T7 phage) or HEK-293

[3] = target: T2, MEK1 (Homo sapiens, UniProt Q02750); test: KINOMEscan; assay type: binding
T2 construct: purchased Eurofins DiscoverX, LLC; host or cells: E. coli (BL21-derived, T7 phage) or HEK-293

[4] = target: T3, AKT2 (Homo sapiens, UniProt P31751); test: KINOMEscan; assay type: binding
T3 construct: purchased Eurofins DiscoverX, LLC; host or cells: E. coli BL21-derived (T7 phage) or HEK-293

[5] = target: T4, p38δ (Homo sapiens, UniProt O15264); test: KINOMEscan; assay type: binding
T4 construct: purchased Eurofins DiscoverX, LLC; host or cells: E. coli (BL21-derived, T7 phage) or HEK-293
T4 sequence (O15264 1-365): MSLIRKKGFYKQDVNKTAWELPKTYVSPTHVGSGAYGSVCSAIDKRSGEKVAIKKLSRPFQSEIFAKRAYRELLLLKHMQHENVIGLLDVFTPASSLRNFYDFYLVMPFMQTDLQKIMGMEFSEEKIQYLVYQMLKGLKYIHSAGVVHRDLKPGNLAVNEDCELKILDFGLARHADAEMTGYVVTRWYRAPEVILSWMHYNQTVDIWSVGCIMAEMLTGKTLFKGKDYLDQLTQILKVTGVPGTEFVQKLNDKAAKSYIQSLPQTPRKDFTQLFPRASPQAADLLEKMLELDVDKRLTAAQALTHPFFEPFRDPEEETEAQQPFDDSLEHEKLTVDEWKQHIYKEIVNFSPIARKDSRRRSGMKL

[6] = target: T5, INSR (Homo sapiens, UniProt P06213); test: KINOMEscan; assay type: binding
T5 construct: purchased Eurofins DiscoverX, LLC; host or cells: E. coli (T7 phage) or HEK-293

[7] = target: T6, MKNK2 (Homo sapiens, UniProt Q9HBH9); test: KINOMEscan; assay type: binding
T6 construct: purchased Eurofins DiscoverX, LLC; host or cells: E. coli (BL21-derived, T7 phage) or HEK-293

[8] = target: T7, PAK4 (Homo sapiens, UniProt O96013); test: KINOMEscan; assay type: binding
T7 construct: purchased Eurofins DiscoverX, LLC; host or cells: E. coli BL21-derived host (T7 phage) or HEK-293

[9] = target: T8, CSNK1D (Homo sapiens, UniProt P48730); test: KINOMEscan; assay type: binding
T8 construct: purchased Eurofins DiscoverX, LLC; host or cells: E. coli (T7 phage) or HEK-293

[10] = target: T9, JNK2 (Homo sapiens, UniProt P45984); test: KINOMEscan; assay type: binding
T9 construct: purchased Eurofins DiscoverX, LLC; host or cells: E. coli (BL21-derived, T7 phage) or HEK-293

[11] = target: T10, TRKA (Homo sapiens, UniProt P04629); test: KINOMEscan; assay type: binding
T10 construct: purchased Eurofins DiscoverX, LLC; host or cells: E. coli BL21-derived host (T7 phage) or HEK-293

[12] = target: T11, EPHA2 (Homo sapiens, UniProt P29317); test: KINOMEscan; assay type: binding
T11 construct: purchased Eurofins DiscoverX, LLC; host or cells: E. coli (T7 phage) or HEK-293

[13] = target: T12, MET (Homo sapiens, UniProt P08581); test: KINOMEscan; assay type: binding
T12 construct: purchased Eurofins DiscoverX, LLC; host or cells: E. coli (BL21-derived, T7 phage) or HEK-293

[14] = target: T13, MARK3 (Homo sapiens, UniProt P27448); test: KINOMEscan; assay type: binding
T13 construct: purchased Eurofins DiscoverX, LLC; host or cells: E. coli (BL21-derived, T7 phage) or HEK-293

[15] = target: T14, PDGFRB (Homo sapiens, UniProt P09619); test: KINOMEscan; assay type: binding
T14 construct: purchased Eurofins DiscoverX, LLC; host or cells: E. coli BL21-derived host (T7 phage) or HEK-293

[16] = target: T15, RET (Homo sapiens, UniProt P07949); test: KINOMEscan; assay type: binding
T15 construct: purchased Eurofins DiscoverX, LLC; host or cells: E. coli BL21-derived host (T7 phage) or HEK-293

[17] = target: T16, ERK 2 (Homo sapiens, UniProt P28482); test: KINOMEscan; assay type: binding
T16 construct: purchased Eurofins DiscoverX, LLC; host or cells: E. coli (T7 phage) or HEK-293

[18] = target: T17, PCTK1 (Homo sapiens, UniProt Q00536); test: KINOMEscan; assay type: binding
T17 construct: purchased Eurofins DiscoverX, LLC; host or cells: E. coli BL21-derived host (T7 phage) or HEK-293

[19] = target: T18, ABL1-phosphorylated (Homo sapiens, UniProt P00519); test: KINOMEscan; assay type: binding
T18 construct: purchased Eurofins DiscoverX, LLC; host or cells: E. coli BL21-derived (T7 phage) or HEK-293

[20] = target: T19, CDK2 (Homo sapiens, UniProt P24941); test: KINOMEscan; assay type: binding
T19 construct: purchased Eurofins DiscoverX, LLC; host or cells: E. coli BL21-derived (T7 phage) or HEK-293

[21] = target: T20, CDK7 (Homo sapiens, UniProt P50613); test: KINOMEscan; assay type: binding
T20 construct: purchased Eurofins DiscoverX, LLC; host or cells: E. coli BL21-derived (T7 phage) or HEK-293

[22] = target: T21, PAK1 (Homo sapiens, UniProt Q13153); test: KINOMEscan; assay type: binding
T21 construct: purchased Eurofins DiscoverX, LLC; host or cells: E. coli (BL21-derived, T7 phage) or HEK-293

[23] = target: T22, BRAF (Homo sapiens, UniProt P15056); test: KINOMEscan; assay type: binding
T22 construct: purchased Eurofins DiscoverX, LLC; host or cells: E. coli BL21-derived (T7 phage) or HEK-293

[24] = target: T23, ERBB2 (Homo sapiens, UniProt P04626); test: KINOMEscan; assay type: binding
T23 construct: purchased Eurofins DiscoverX, LLC; host or cells: E. coli (T7 phage) or HEK-293

[25] = system: SNARK

T22 sequence (P15056 whole entry): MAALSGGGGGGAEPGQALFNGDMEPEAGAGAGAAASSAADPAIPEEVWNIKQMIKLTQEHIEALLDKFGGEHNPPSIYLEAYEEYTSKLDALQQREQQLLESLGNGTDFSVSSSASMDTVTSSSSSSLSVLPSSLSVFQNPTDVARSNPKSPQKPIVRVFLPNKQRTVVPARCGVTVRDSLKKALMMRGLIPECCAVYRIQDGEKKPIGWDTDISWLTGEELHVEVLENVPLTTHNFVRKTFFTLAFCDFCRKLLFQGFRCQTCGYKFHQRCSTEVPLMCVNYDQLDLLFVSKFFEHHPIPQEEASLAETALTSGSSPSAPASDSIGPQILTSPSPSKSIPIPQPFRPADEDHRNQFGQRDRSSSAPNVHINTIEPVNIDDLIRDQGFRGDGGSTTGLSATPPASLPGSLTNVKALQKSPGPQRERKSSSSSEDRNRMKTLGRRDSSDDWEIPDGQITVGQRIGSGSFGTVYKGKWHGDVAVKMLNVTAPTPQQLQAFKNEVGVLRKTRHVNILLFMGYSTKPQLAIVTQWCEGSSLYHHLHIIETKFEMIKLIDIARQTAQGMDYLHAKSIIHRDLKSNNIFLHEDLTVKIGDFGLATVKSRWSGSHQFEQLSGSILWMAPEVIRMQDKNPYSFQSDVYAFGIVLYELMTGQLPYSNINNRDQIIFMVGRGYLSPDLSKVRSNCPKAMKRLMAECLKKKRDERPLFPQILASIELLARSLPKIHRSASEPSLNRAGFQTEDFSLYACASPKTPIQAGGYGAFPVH
T3 sequence (P31751 whole entry): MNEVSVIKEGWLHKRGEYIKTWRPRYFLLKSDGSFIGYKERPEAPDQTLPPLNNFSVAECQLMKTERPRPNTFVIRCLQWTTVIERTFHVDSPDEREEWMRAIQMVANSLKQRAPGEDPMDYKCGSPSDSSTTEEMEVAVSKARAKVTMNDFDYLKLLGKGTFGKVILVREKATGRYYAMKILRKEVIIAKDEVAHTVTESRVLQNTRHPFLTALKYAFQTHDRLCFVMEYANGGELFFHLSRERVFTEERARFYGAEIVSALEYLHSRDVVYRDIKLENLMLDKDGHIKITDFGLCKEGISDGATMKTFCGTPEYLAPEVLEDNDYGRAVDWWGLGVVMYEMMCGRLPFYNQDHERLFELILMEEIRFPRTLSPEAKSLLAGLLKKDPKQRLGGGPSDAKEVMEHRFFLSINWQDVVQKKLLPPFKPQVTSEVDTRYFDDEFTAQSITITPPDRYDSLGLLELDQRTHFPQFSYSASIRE
T5 sequence (P06213 28-1382): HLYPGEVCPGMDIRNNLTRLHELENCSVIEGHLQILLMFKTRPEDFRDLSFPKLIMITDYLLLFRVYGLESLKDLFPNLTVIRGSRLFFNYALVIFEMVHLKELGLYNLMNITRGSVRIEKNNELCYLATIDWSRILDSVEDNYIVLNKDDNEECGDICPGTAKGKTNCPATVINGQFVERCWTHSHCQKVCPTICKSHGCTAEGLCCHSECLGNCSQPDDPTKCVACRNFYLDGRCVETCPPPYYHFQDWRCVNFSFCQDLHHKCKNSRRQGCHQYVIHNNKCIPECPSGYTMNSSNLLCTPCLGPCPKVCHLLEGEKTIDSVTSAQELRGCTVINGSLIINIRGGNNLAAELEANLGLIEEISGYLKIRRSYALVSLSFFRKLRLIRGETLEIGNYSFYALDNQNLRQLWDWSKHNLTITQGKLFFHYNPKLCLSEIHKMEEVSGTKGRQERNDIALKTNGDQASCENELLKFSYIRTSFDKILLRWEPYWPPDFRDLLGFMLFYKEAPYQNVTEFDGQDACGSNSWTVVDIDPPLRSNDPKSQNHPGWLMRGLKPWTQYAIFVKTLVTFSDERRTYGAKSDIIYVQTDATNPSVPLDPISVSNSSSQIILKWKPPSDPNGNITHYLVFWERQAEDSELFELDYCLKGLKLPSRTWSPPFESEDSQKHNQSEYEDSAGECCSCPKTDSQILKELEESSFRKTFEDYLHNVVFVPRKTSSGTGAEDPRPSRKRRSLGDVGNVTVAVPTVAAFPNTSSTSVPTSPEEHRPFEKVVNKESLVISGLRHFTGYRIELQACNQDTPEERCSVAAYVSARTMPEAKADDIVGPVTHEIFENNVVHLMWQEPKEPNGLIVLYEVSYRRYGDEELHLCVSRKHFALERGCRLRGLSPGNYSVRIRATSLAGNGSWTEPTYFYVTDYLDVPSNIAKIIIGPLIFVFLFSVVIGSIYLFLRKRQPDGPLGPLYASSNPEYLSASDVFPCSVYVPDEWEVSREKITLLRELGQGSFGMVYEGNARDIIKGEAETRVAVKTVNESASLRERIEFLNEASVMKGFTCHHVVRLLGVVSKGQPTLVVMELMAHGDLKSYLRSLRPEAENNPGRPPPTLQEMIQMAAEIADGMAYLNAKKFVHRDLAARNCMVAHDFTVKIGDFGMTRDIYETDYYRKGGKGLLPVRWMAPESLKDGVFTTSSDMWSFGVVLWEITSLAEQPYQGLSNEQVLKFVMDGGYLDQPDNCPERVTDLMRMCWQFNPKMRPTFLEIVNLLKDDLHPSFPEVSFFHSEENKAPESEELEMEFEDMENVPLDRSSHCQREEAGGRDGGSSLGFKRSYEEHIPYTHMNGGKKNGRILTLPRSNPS
T6 sequence (Q9HBH9 whole entry): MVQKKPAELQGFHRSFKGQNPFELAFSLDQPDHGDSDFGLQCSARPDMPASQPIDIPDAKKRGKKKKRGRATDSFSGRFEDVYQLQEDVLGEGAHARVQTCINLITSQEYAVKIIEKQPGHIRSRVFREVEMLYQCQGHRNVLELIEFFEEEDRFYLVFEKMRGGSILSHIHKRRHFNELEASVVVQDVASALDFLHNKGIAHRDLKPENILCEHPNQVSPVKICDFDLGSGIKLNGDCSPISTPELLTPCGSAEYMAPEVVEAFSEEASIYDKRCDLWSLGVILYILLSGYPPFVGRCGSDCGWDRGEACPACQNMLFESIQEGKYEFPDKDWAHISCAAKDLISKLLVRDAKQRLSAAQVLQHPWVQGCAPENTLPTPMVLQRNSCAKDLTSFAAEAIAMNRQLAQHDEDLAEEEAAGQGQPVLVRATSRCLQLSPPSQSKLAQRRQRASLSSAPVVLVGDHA
T21 sequence (Q13153 whole entry): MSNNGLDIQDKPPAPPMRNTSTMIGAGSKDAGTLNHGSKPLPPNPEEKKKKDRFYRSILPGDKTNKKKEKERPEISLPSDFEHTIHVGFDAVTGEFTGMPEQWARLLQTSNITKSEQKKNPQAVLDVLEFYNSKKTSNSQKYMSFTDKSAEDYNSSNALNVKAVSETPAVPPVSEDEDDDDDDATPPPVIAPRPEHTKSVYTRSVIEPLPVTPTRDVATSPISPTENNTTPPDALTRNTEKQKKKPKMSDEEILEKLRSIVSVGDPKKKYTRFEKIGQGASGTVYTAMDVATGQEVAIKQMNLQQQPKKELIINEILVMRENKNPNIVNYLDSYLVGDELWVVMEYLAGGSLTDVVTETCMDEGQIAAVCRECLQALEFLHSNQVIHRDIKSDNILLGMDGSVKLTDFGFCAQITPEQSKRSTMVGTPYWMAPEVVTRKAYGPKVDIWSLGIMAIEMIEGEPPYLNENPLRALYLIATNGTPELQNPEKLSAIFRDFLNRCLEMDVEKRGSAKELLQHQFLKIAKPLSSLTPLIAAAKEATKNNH
T17 sequence (Q00536 whole entry): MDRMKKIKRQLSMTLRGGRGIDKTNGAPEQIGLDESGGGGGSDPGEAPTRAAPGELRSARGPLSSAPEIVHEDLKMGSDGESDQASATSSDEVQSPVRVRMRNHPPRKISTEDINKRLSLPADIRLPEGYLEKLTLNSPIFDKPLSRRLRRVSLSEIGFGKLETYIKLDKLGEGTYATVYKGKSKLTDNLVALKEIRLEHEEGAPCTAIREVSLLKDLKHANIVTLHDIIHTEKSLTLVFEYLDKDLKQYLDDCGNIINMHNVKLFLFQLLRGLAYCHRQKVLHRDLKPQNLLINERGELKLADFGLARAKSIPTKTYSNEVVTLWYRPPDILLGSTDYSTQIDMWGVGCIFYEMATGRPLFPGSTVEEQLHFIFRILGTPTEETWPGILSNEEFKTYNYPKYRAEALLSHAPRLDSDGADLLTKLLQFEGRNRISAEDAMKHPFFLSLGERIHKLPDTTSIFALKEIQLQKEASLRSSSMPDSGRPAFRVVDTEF
T16 sequence (P28482 whole entry): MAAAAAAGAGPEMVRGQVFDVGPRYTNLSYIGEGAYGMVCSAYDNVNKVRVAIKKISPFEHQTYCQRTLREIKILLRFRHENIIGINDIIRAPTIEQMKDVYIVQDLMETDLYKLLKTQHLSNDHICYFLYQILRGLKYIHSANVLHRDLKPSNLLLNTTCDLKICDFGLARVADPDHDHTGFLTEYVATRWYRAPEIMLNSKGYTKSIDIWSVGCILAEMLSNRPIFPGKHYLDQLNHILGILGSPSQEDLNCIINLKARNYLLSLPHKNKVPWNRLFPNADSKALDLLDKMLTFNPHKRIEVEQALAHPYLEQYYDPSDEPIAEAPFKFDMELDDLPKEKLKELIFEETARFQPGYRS
T8 sequence (P48730 whole entry): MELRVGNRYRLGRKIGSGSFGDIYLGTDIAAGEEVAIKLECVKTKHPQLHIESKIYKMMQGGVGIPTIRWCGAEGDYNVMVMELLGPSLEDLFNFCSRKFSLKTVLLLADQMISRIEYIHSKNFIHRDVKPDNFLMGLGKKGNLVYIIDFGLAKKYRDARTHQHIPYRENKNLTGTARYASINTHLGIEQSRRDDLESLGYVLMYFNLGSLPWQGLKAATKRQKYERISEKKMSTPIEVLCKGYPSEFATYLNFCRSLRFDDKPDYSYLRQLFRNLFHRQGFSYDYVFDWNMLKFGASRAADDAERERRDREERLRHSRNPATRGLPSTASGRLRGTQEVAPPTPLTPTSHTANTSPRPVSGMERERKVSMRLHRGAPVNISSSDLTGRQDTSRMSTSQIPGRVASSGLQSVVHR

CC(C)Cn1ncc2cc(Cc3ccc(F)cc3F)c(C(=O)NCCN(C)C)cc21 [Compound 94, 5-(2,4-Difluorobenzyl)-N-(2-(dimethylamino)ethyl)-1-isobutyl-1H-indazole-6-carboxamide]
RA @ 1000nM [1]: 86% | RA @ 10000nM [1]: 95% | RA @ 1000nM [2]: 55% | RA @ 10000nM [2]: 6.8% | RA @ 1000nM [3]: 98% | RA @ 10000nM [3]: 74% | RA @ 1000nM [4]: 89% | RA @ 10000nM [4]: 76% | RA @ 1000nM [5]: 97% | RA @ 10000nM [5]: 100% | RA @ 1000nM [6]: 81% | RA @ 10000nM [6]: 90% | RA @ 1000nM [7]: 76% | RA @ 10000nM [7]: 80% | RA @ 1000nM [8]: 97% | RA @ 10000nM [8]: 96% | RA @ 1000nM [9]: 86% | RA @ 10000nM [9]: 79% | RA @ 1000nM [10]: 52% | RA @ 10000nM [10]: 8.3% | RA @ 1000nM [11]: 98% | RA @ 10000nM [11]: 94% | RA @ 1000nM [12]: 97% | RA @ 10000nM [12]: 100% | RA @ 1000nM [13]: 96% | RA @ 10000nM [13]: 100% | RA @ 1000nM [14]: 100% | RA @ 10000nM [14]: 100% | RA @ 1000nM [15]: 100% | RA @ 10000nM [15]: 97% | RA @ 1000nM [16]: 100% | RA @ 10000nM [16]: 100% | RA @ 1000nM [17]: 100% | RA @ 10000nM [17]: 98% | RA @ 1000nM [18]: 96% | RA @ 10000nM [18]: 92% | RA @ 1000nM [19]: 79% | RA @ 10000nM [19]: 53% | RA @ 1000nM [20]: 82% | RA @ 10000nM [20]: 97% | RA @ 1000nM [21]: 79% | RA @ 10000nM [21]: 86% | RA @ 1000nM [22]: 96% | RA @ 10000nM [22]: 94% | RA @ 1000nM [23]: 100% | RA @ 10000nM [23]: 100% | RA @ 1000nM [24]: 74% | RA @ 10000nM [24]: 81% | RA @ 1000nM [25]: 100% | RA @ 10000nM [25]: 93%

CN(C)CCNC(=O)c1cc2c(cnn2CC2CCCCC2)cc1Cc1ccc(F)cc1F [Compound 95, 1-(Cyclohexylmethyl)-5-(2,4-difluorobenzyl)-N-(2-(dimethylamino)ethyl)-1H-indazole-6-carboxamide]
RA @ 1000nM [1]: 89% | RA @ 10000nM [1]: 92% | RA @ 1000nM [2]: 48% | RA @ 10000nM [2]: 3.7% | RA @ 1000nM [3]: 98% | RA @ 10000nM [3]: 100% | RA @ 1000nM [4]: 100% | RA @ 10000nM [4]: 88% | RA @ 1000nM [5]: 100% | RA @ 10000nM [5]: 100% | RA @ 1000nM [6]: 84% | RA @ 10000nM [6]: 81% | RA @ 1000nM [7]: 81% | RA @ 10000nM [7]: 67% | RA @ 1000nM [8]: 100% | RA @ 10000nM [8]: 88% | RA @ 1000nM [9]: 93% | RA @ 10000nM [9]: 84% | RA @ 1000nM [10]: 44% | RA @ 10000nM [10]: 3.8% | RA @ 1000nM [11]: 100% | RA @ 10000nM [11]: 92% | RA @ 1000nM [12]: 100% | RA @ 10000nM [12]: 100% | RA @ 1000nM [13]: 100% | RA @ 10000nM [13]: 100% | RA @ 1000nM [14]: 79% | RA @ 10000nM [14]: 86% | RA @ 1000nM [15]: 100% | RA @ 10000nM [15]: 96% | RA @ 1000nM [16]: 100% | RA @ 10000nM [16]: 100% | RA @ 1000nM [17]: 100% | RA @ 10000nM [17]: 100% | RA @ 1000nM [18]: 87% | RA @ 10000nM [18]: 79% | RA @ 1000nM [19]: 81% | RA @ 10000nM [19]: 85% | RA @ 1000nM [20]: 99% | RA @ 10000nM [20]: 100% | RA @ 1000nM [21]: 88% | RA @ 10000nM [21]: 77% | RA @ 1000nM [22]: 100% | RA @ 10000nM [22]: 93% | RA @ 1000nM [23]: 100% | RA @ 10000nM [23]: 100% | RA @ 1000nM [24]: 84% | RA @ 10000nM [24]: 78% | RA @ 1000nM [25]: 93% | RA @ 10000nM [25]: 92%
